The test system of assay [1] is HeLa cells. The experiment in a line: Apoptosis analysis (Annexin V/PI flow cytometry) in HeLa cells. It counts as cell-based, human. The following applies: 6 h-treatment. On the procedure:
Apoptosis analysis was performed by using a Vybrant Apoptosis Assay Kit #2 (Molecular Probes, Invitrogen Corporation, Carlsbad, CA, U.S.A.) according to the manufacturer’s instructions. Briefly, cells were seeded at 1.2 × 10^6 cells/4 ml in a 4.5-cm dish, incubated for 24 hours, and treated with different concentrations of the extracts or sinapinic acid for 6 hours. Cells were harvested by trypsinization, washed with cold PBS, and resuspended in the Annexin-binding buffer. Cell density was determined and diluted in the annexin-binding buffer to 10^5 cells per assay. Cells were incubated with Alexa Fluor 488 Annexin V and Propidium iodide (PI) at room temperature for 15 minutes. Following the incubation, cells were analyzed by flow cytometry using a Beckman Coulter Cytomics FC500 MPL flow cytometry (Beckman Coulter, Miami, FL, U.S.A.). The flow cytometry results were confirmed by viewing the cells under a fluorescence microscope.
In general terms: Flow cytometry measures light scatter and fluorescence of single cells or particles in a stream.

The target in assay [2] is HDAC enzymes (HeLa nuclear extract). The experiment in a line: In vitro HDAC inhibition activity assay (Fluor-de-Lys kit). The format is biochemical, human. On the procedure: HDAC inhibitory activity of the H. formicarum Jack. rhizome extracts, sinapinic acid (Sigma) and sodium butyrate (Sigma) was determined by using the Fluor-de-Lys HDAC activity assay kit (Biomol, Enzo Life Sciences International, Inc., Plymount Meeting, PA, U.S.A.). The assay was performed according to the manufacturer’s instructions. Fluorescence was measured using a spectra Max Gemini XPS microplate spectrofluorometer (Molecular Devices, Sunnyvale, CA, U.S.A.) with excitation at 360 nm and emission at 460 nm. Inhibition of HDAC activity was monitored by a decrease in fluorescence signal.
The effect of various polarity extracts including fractionated solvent extracts from hexane soluble fraction, ethyl acetate soluble fraction, methanol soluble fraction and also ethanolic crude extract on in vitro HDAC activity was examined by using HeLa nuclear extract as a source of the HDAC enzymes.

Assay [3] has as its system histone H4 acetylation in HeLa cells. The experiment in a line: HDAC inhibition in HeLa cells: histone acetylation by AUT gel electrophoresis. It counts as cell-based, human. The following applies: 6 h-treatment. The protocol:
Cells grown in a 4.5-cm dish were treated with either solvent control or the sample for 6 hours, and the histone proteins were then isolated according to the Abcam’s protocol (Abcam Inc., Cambridge, MA, U.S.A.) with some modifications. In brief, cells were harvested by trypsinization, washed with PBS, and then resuspended in Triton Extraction Buffer (TEB; PBS containing 0.5% (v/v) Triton X-100, 2 mM phenylmethylsulfonyl fluoride, 0.02% (w/v) NaN3) at a cell density of 10^5 cells/ml. The cells were incubated on ice and agitated periodically for 10 minutes. The suspension was centrifuged at 7,500 rpm for 10 minutes at 4°C to spin down the nuclei and the supernatant was discarded. The nuclei pellet was resuspended in 0.2 M HCl at a density of 10^6 nuclei/ml and incubated overnight at 4°C. […] Protein concentration was measured by using a Bio-Rad protein assay kit (Bio-Rad Laboratories, Hercules, CA, U.S.A.) based on the Bradford method.
Inhibition on acetylation of cellular histones was analyzed by gel electrophoresis using acid urea/Triton-X-100 (AUT) gels. […]
HDAC inhibition by ethanolic crude extract, phenolic-rich extract and sinapinic acid in HeLa cells was analyzed by AUT gel electrophoresis, whereby each cellular core histone (H2A, H2B, H3, and H4) with different extent of acetylation can be separated. […]

The next assay has as its system Vero cells. The experiment in a line: Antiproliferative activity assay (WST-8), Vero cells. The format is cell-based. The following applies: compounds. On the procedure: (§1) Cells were seeded in a 96-well plate at cell density of 10^4 cells/well and incubated for 24 hours. Sample groups were treated with different concentrations of H. formicarum Jack. rhizome extracts (0.5-3.0 mg/mL), sinapinic acid (0.5-3.0 mM), or sodium butyrate (0.5-3.0 mM) for 24, 48 and 72 hours. Vehicle control groups were added with DMSO (final concentration of 0.05%) or double distilled water. Cell proliferation assays were performed using a WST-8 Cell Proliferation Assay Kit (BioVision, Mountain View, CA, U.S.A.) according to the manufacturer’s instructions. Absorbance (A) was measured at 415 nm using a microtiter plate reader (Bio-Rad Laboratories, Hercules, CA, U.S.A.). The absorbance at 655 nm was used as a reference wavelength. Cell proliferation or cell growth was determined as a percentage of the vehicle control by an equation of;
(§2) %CellProliferation=controlA‒sampleA/controlA×100.

Assay [4] deals with HeLa cells. The experiment in a line: Antiproliferative activity assay (WST-8), HeLa cells. It counts as cell-based, human. The following applies: compounds. The protocol:
as §1, §2
A general note: Formazan colour is commonly taken as a measure of viable cells.

Another assay concerns HT29 cells. The experiment in a line: Antiproliferative activity assay (WST-8), HT29 cells. It counts as cell-based, human. The following applies: compounds. The protocol: as §1, §2
The test system of a further assay is HCT116 cells. The experiment in a line: Antiproliferative activity assay (WST-8), HCT116 cells. The format is cell-based, human. The following applies: compounds. On the procedure:
as §1, §2

A further assay concerns MCF-7 cells. The experiment in a line: Antiproliferative activity assay (WST-8), MCF-7 cells. The following applies: compounds. The format is cell-based, human. On the procedure: as §1, §2
The next assay relates to Jurkat cells. The experiment in a line: Antiproliferative activity assay (WST-8), Jurkat cells. The format is cell-based, human. The following applies: compounds. The protocol: as §1, §2
The mark [5] stands for this setting: 72 h, read-out: IC50 values, HeLa cells 72 h.

Like-named read-outs stand apart in the source and are kept apart here.

As for `CC[C@@]1(O)C(=O)OCc2c1cc1n(c2=O)Cc2cc3ccccc3nc2-1` [Camptothecin], in the assay with HeLa cells [1] (0.1 mg/mL), the “Number of Late Apoptotic cells (%)” value is 3.55 ± 1.06%.

Regarding `COc1cc(/C=C/C(=O)O)cc(OC)c1O` [Sinapinic acid, sinapinic acid], the IC50 (as a rule, the point on the concentration scale where inhibition reaches its midpoint) in [2] was 2270 ± 130 µM; in the assay with Vero cells (Chlorocebus sabaeus, Vero, 24 h, read-out: IC50 values, Vero cells 24 h), more than 3000 µM; in the assay with Vero cells (Chlorocebus sabaeus, Vero, 48 h, read-out: IC50 values, Vero cells 48 h), more than 3000 µM; in the assay with Vero cells (Chlorocebus sabaeus, Vero, 72 h, read-out: IC50 values, Vero cells 72 h), more than 3000 µM; in the assay with HeLa cells [4] (Homo sapiens, HeLa, 24 h, 24 h, read-out: IC50 values, HeLa cells 24 h) it was 2350 ± 30 µM; with HeLa cells [4] (Homo sapiens, HeLa, 48 h, 48 h, read-out: IC50 values, HeLa cells 48 h), 2040 ± 60 µM. The IC50 was 910 ± 20 µM in the assay with HeLa cells [4] (Homo sapiens, HeLa, 72 h, 72 h, read-out: IC50 values, HeLa cells 72 h); 900 ± 20 µM in the assay on HeLa cells [4] (setting [5]); 2970 ± 50 µM with HT29 cells (Homo sapiens, HT-29, 24 h, read-out: IC50 values, HT29 cells 24 h); 2200 ± 30 µM in the assay with HT29 cells (Homo sapiens, HT-29, 48 h, read-out: IC50 values, HT29 cells 48 h); 1600 ± 20 µM with HT29 cells (Homo sapiens, HT-29, 72 h, read-out: IC50 values, HT29 cells 72 h); more than 3000 µM with HCT116 cells (Homo sapiens, HCT-116, 24 h, read-out: IC50 values, HCT116 cells 24 h). In addition, the IC50 in the assay with HCT116 cells (Homo sapiens, HCT-116, 48 h, read-out: IC50 values, HCT116 cells 48 h) is 2200 ± 150 µM; in the assay on HCT116 cells (Homo sapiens, HCT-116, 72 h, read-out: IC50 values, HCT116 cells 72 h), 2100 ± 60 µM; with MCF-7 cells (Homo sapiens, MCF7, 24 h, read-out: IC50 values, MCF-7 cells 24 h), more than 3000 µM; in the assay on MCF-7 cells (Homo sapiens, MCF7, 48 h, read-out: IC50 values, MCF-7 cells 48 h), more than 3000 µM; in the assay with MCF-7 cells (Homo sapiens, MCF7, 72 h, read-out: IC50 values, MCF-7 cells 72 h) it was more than 3000 µM; in the assay with Jurkat cells (Homo sapiens, Jurkat, 24 h, read-out: IC50 values, Jurkat cells 24 h), more than 3000 µM. Moreover, the IC50 in the assay with Jurkat cells (Homo sapiens, Jurkat, 48 h, read-out: IC50 values, Jurkat cells 48 h) is more than 3000 µM; with Jurkat cells (Homo sapiens, Jurkat, 72 h, read-out: IC50 values, Jurkat cells 72 h), 2800 ± 120 µM. Moreover, in [3], the “Histone H4 acetylation in HeLa cells (in words)” value is “clearly increased di- and tri-acetylated H4 molecules”. Also, the “Number of Early Apoptotic cells (%)” value in the assay with HeLa cells [1] (4.5 mM) is on record as 4.40 ± 1.27%; in the assay on HeLa cells [1] (9.0 mM), 8.40 ± 1.55%; in the assay on HeLa cells [1] (9.0 mM, listed as sinapinic acid), 8.4%. In addition, the “Number of Late Apoptotic cells (%)” value in the assay on HeLa cells [1] (4.5 mM) is reported as 1.75 ± 0.78%; in the assay with HeLa cells [1] (9.0 mM), 3.25 ± 1.06%.

Turning to `CCCC(=O)[O-].[Na+]` [Sodium butyrate, sodium butyrate], the IC50 is 970 ± 70 µM in assay [2]; more than 3000 µM with Vero cells (24 h, read-out: IC50 values, Vero cells 24 h); more than 3000 µM in the assay with Vero cells (48 h, read-out: IC50 values, Vero cells 48 h); more than 3000 µM in the assay with Vero cells (72 h, read-out: IC50 values, Vero cells 72 h); 2630 ± 60 µM in the assay on HeLa cells [4] (24 h, read-out: IC50 values, HeLa cells 24 h); 2220 ± 130 µM in the assay with HeLa cells [4] (48 h, read-out: IC50 values, HeLa cells 48 h). In addition, the IC50 in the assay on HeLa cells [4] (72 h, listed as sodium butyrate, read-out: IC50 values, HeLa cells 72 h) was 1220 ± 30 µM; with HeLa cells [4] (setting [5]) it was 1200 ± 30 µM; in the assay with HT29 cells (24 h, read-out: IC50 values, HT29 cells 24 h), more than 3000 µM; with HT29 cells (48 h, read-out: IC50 values, HT29 cells 48 h) it was more than 3000 µM; with HT29 cells (72 h, read-out: IC50 values, HT29 cells 72 h), 2570 ± 30 µM; in the assay with HCT116 cells (24 h, read-out: IC50 values, HCT116 cells 24 h), more than 3000 µM. Moreover, the IC50 in the assay with HCT116 cells (48 h, read-out: IC50 values, HCT116 cells 48 h) is 2200 ± 200 µM; with HCT116 cells (72 h, read-out: IC50 values, HCT116 cells 72 h), 2000 ± 50 µM; in the assay with MCF-7 cells (24 h, read-out: IC50 values, MCF-7 cells 24 h), more than 3000 µM; with MCF-7 cells (48 h, read-out: IC50 values, MCF-7 cells 48 h), more than 3000 µM; with MCF-7 cells (72 h, read-out: IC50 values, MCF-7 cells 72 h) it was more than 3000 µM; in the assay with Jurkat cells (24 h, read-out: IC50 values, Jurkat cells 24 h) it was more than 3000 µM. The half-maximal inhibitory concentration (IC50) with Jurkat cells (48 h, read-out: IC50 values, Jurkat cells 48 h) was determined as 2360 ± 190 µM; in the assay on Jurkat cells (72 h, read-out: IC50 values, Jurkat cells 72 h) it was 1500 ± 300 µM. In addition, the “Number of Early Apoptotic cells (%)” value is 3.75 ± 1.06% in the assay with HeLa cells [1] (4.5 mM); 7.60 ± 1.27% with HeLa cells [1] (9.0 mM); 7.6% with HeLa cells [1] (9.0 mM, listed as sodium butyrate). Further, the “Number of Late Apoptotic cells (%)” value with HeLa cells [1] (4.5 mM) is 1.00 ± 0.28%; with HeLa cells [1] (9.0 mM) it was 2.05 ± 1.06%.

The values above are taken from PMC3848914, “Histone deacetylase (HDAC) inhibitory and antiproliferative activities of phenolic-rich extracts derived from the rhizome of Hydnophytum formicarum Jack.: sinapinic acid acts as HDAC inhibitor” (BMC Complementary and Alternative Medicine, 2013).
